In ChEMBL document CHEMBL4190162, “SAR and identification of 2-(quinolin-4-yloxy)acetamides as Mycobacterium tuberculosis cytochrome bc1 inhibitors” (Medchemcomm, 2016):
Converted amounts (≈) assume the structure as drawn.

Assays:
[1] = tested on: Mycobacterium tuberculosis; experiment: Antimycobacterial activity against Mycobacterium tuberculosis H37Rv harboring cyd deletion mutant measured after 2 weeks by microplate alamar blue assay; assay type: functional
[2] = tested on: Mycobacterium tuberculosis H37Rv; experiment: Inhibition of QCR1 A317V mutant in Mycobacterium tuberculosis H37Rv harboring cyd deletion mutant assessed as reduction in bacterial growth relative to wild-type QCR1
[3] = tested on: Mycobacterium tuberculosis H37Rv; experiment: Inhibition of QCR2 M342T mutant in Mycobacterium tuberculosis H37Rv harboring cyd deletion mutant assessed as reduction in bacterial growth relative to wild-type QCR2
[4] = tested on: Mycobacterium tuberculosis H37Rv; experiment: Inhibition of QCR3 W312G mutant in Mycobacterium tuberculosis H37Rv harboring cyd deletion mutant assessed as reduction in bacterial growth relative to wild-type QCR3
[5] = tested on: Mycobacterium tuberculosis H37Rv; experiment: Inhibition of QCR4 A396T mutant in Mycobacterium tuberculosis H37Rv harboring cyd deletion mutant assessed as reduction in bacterial growth relative to wild-type QCR4
[6] = tested on: Mycobacterium tuberculosis H37Rv; experiment: Inhibition of QCR5 M342I mutant in Mycobacterium tuberculosis H37Rv harboring cyd deletion mutant assessed as reduction in bacterial growth relative to wild-type QCR5
[7] = tested on: Mycobacterium tuberculosis H37Rv; experiment: Inhibition of QCR6 A317T mutant in Mycobacterium tuberculosis H37Rv harboring cyd deletion mutant assessed as reduction in bacterial growth relative to wild-type QCR6
[8] = tested on: Mycobacterium tuberculosis H37Rv; experiment: Inhibition of QCR7 S182T mutant in Mycobacterium tuberculosis H37Rv harboring cyd deletion mutant assessed as reduction in bacterial growth relative to wild-type QCR7

Molecule `COc1cccc(NC(=O)COc2cc(C)nc3ccc(OC)cc23)c1` has an MIC [1] of 0.57 µM (≈ 0.201 µg/mL).

In the case of `COc1ccc2nc(C)cc(OCC(=O)NCCCc3ccccc3)c2c1`, the MIC [1] is reported as 2.14 µM (≈ 0.78 µg/mL).

For `COc1ccc2nc(C)cc(OCC(=O)NCc3ccccc3)c2c1`, the MIC [1] was 0.59 µM (≈ 0.198 µg/mL), the fold change (FC) [2] was > 250 and the fold change (FC) [3] was 3. For the same molecule, the fold change (FC) [4] was 47, the fold change (FC) [5] was 3.9 and the fold change (FC) [6] was 3.9. The fold change (FC) [7] was 23.5 and the fold change (FC) [8] was 15.7.

With `COc1ccc2nc(C)cc(OCC(=O)NCCc3ccccc3)c2c1` the MIC [1] was 4.45 µM (≈ 1.56 µg/mL).

`COc1cc(NC(=O)COc2cc(C)nc3ccc(OC)cc23)cc(OC)c1` gave an MIC [1] of 2.04 µM (≈ 0.78 µg/mL).

Molecule `COc1ccccc1NC(=O)COc1cc(C)nc2ccccc12` has an MIC [1] of 7.13 µM (≈ 2.3 µg/mL).

For `COc1ccc2nc(C)cc(OCC(=O)Nc3ccc(Br)cc3)c2c1`, the MIC [1] was 0.17 µM (≈ 0.0682 µg/mL).

For `COc1ccc2nc(C)cc(OCC(=O)Nc3ccccc3Cl)c2c1`, the MIC [1] was <0.067 µM.

`C#CCNC(=O)COc1cc(C)nc2ccc(OC)cc12` gave an MIC [1] of 21.98 µM (≈ 6.25 µg/mL).

`CC(=O)NC[C@H]1CN(c2ccc(N3CCOCC3)c(F)c2)C(=O)O1` [LINEZOLID] showed an MIC [1] of 1.56 µM (≈ 0.526 µg/mL).

In the case of `COc1ccc2nc(C)cc(OCC(=O)NCCc3ccc4c(c3)OCO4)c2c1`, the MIC [1] is reported as 3.04 µM (≈ 1.2 µg/mL).

`CCCCCNC(=O)COc1cc(C)nc2ccc(OC)cc12` was tested, and the MIC [1] was 0.95 µM (≈ 0.301 µg/mL).

With `COc1ccccc1NC(=O)COc1cc(C)nc2ccc(Br)cc12` the MIC [1] was 0.5 µM (≈ 0.201 µg/mL).

For `COc1ccc2nc(C)cc(OCC(=O)Nc3ccc(C)cc3)c2c1`, the MIC [1] was <0.071 µM, the fold change (FC) [2] was > 32.5 and the fold change (FC) [3] was > 2. For the same molecule, the fold change (FC) [4] was > 16.3, the fold change (FC) [5] was > 2 and the fold change (FC) [6] was 1. For the same molecule, the fold change (FC) [7] was > 12.5 and the fold change (FC) [8] was > 16.3.

Work on `COc1ccc2nc(C)cc(OCC(=O)Nc3ccc(-c4ccccc4)cc3)c2c1` yielded an MIC [1] of 0.12 µM (≈ 0.0478 µg/mL).

In the case of `COc1ccc2nc(C)cc(OCC(=O)Nc3ccc4c(c3)OCO4)c2c1`, the MIC [1] is reported as 0.19 µM (≈ 0.0696 µg/mL), the fold change (FC) [2] is reported as 134 and the fold change (FC) [3] is reported as 2.1. It also gave a fold change (FC) [4] of 17.1, a fold change (FC) [5] of 5.6 and a fold change (FC) [6] of 1.4. For the same molecule, the fold change (FC) [7] was 32.9 and the fold change (FC) [8] was 32.9.

`c1ccc(Cn2cnc3c(-c4ccco4)nccc32)cc1` was tested, and the MIC [1] was 0.31 µM (≈ 0.0853 µg/mL), the fold change (FC) [2] was > 81 and the fold change (FC) [3] was 20.2. For the same molecule, the fold change (FC) [4] was > 81, the fold change (FC) [5] was 20.2 and the fold change (FC) [6] was 20.2. The fold change (FC) [7] was 10.1 and the fold change (FC) [8] was 61.3.

Molecule `COc1ccc2nc(C)cc(OCC(=O)Nc3ccccc3OC)c2c1` has an MIC [1] of 0.14 µM (≈ 0.0493 µg/mL), a fold change (FC) [2] of 46.9 and a fold change (FC) [3] of 1.4. The fold change (FC) [4] was 46.9, the fold change (FC) [5] was 4.1 and the fold change (FC) [6] was 6.1. It also gave a fold change (FC) [7] of 24.5 and a fold change (FC) [8] of 15.9.

For `COc1ccc2nc(C)cc(OCC(=O)NCc3ccc4c(c3)OCO4)c2c1`, the MIC [1] was <0.063 µM, the fold change (FC) [2] was > 130 and the fold change (FC) [3] was > 12.5. For the same molecule, the fold change (FC) [4] was > 25, the fold change (FC) [5] was > 6.3 and the fold change (FC) [6] was > 12.5. The fold change (FC) [7] was > 32.5 and the fold change (FC) [8] was > 95.8.

`Nc1ccc(C(=O)O)c(O)c1` [AMINOSALICYLIC ACID] was tested, and the MIC [1] was 0.6 µM (≈ 0.0919 µg/mL), the fold change (FC) [2] was 0.5 and the fold change (FC) [3] was 0.3. The fold change (FC) [4] was 0.5, the fold change (FC) [5] was 0.3 and the fold change (FC) [6] was 0.5. The fold change (FC) [7] was 0.2 and the fold change (FC) [8] was 0.5.

Work on `COc1ccc(OC)c(CCNC(=O)COc2cc(C)nc3ccc(OC)cc23)c1` yielded an MIC [1] of 7.62 µM (≈ 3.13 µg/mL).

For `COc1ccc2nc(C)cc(OCC(=O)Nc3ccccc3)c2c1`, the MIC [1] was 0.12 µM (≈ 0.0387 µg/mL), the fold change (FC) [2] was > 1250 and the fold change (FC) [3] was 3.8. For the same molecule, the fold change (FC) [4] was 235, the fold change (FC) [5] was 5 and the fold change (FC) [6] was 1.8. The fold change (FC) [7] was 30 and the fold change (FC) [8] was 19.5.

`COc1ccc2nc(C)cc(OCC(=O)Nc3cccc(Br)c3)c2c1` gave an MIC [1] of 0.37 µM (≈ 0.148 µg/mL).

With `COc1ccc2nc(C)cc(OCC(=O)Nc3ccc(OC)c(OC)c3)c2c1` the MIC [1] was 3.14 µM (≈ 1.2 µg/mL).

In the case of `COc1ccc(NC(=O)COc2cc(C)nc3ccc(OC)cc23)cc1`, the MIC [1] is reported as 0.14 µM (≈ 0.0493 µg/mL), the fold change (FC) [2] is reported as 63.9 and the fold change (FC) [3] is reported as 4.1. It also gave a fold change (FC) [4] of 24.5, a fold change (FC) [5] of 3.1 and a fold change (FC) [6] of 3.1. It also gave a fold change (FC) [7] of 24.5 and a fold change (FC) [8] of 15.9.

Molecule `COc1ccc2nc(C)cc(OCC(=O)NCCc3ccc(OC)c(OC)c3)c2c1` has an MIC [1] of 90.13 µM (≈ 37 µg/mL).

Work on `COc1ccc(NC(=O)COc2cc(C)nc3ccc(OC)cc23)c(OC)c1` yielded an MIC [1] of 0.18 µM (≈ 0.0688 µg/mL).

In the case of `COc1ccccc1NC(=O)COc1cc(C)nc2ccc(Cl)cc12`, the MIC [1] is reported as 1.09 µM (≈ 0.389 µg/mL).

For `COc1ccccc1NC(=O)COc1cc(C)nc2ccc(C(F)(F)F)cc12`, the MIC [1] was >128 µM.

For `COCCNC(=O)COc1cc(C)nc2ccc(OC)cc12`, the MIC [1] was 41.06 µM (≈ 12.5 µg/mL).

In the case of `COc1ccc2nc(C)cc(OCC(=O)Nc3ccc(Cl)cc3)c2c1`, the MIC [1] is reported as 0.2 µM (≈ 0.0714 µg/mL).

Molecule `COc1ccccc1NC(=O)COc1cc(C)nc2ccc(C)cc12` has an MIC [1] of 0.45 µM (≈ 0.151 µg/mL).
